TGI data for 24 compounds are collected here from PubChem BioAssay (NCI).

Some test systems named below: MOLT-4 leukemia; HCT-116 colon; SNB-78 CNS; HCT-15 colon; DMS 114 small cell lung; OVCAR-3 ovarian; KM20L2 colon; OVCAR-4 ovarian; HL-60(TB) leukemia; HS 578T breast; DU-145 prostate.
What all share (test): NCI anticancer screen, dose series, 48 h

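Five compound concentrations were applied to cells in 96-well plates for 48 hours; endpoints were derived by simple linear interpolation of the resulting dose-response curve. The concentration for full growth arrest is given as TGI.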

On to `CN(C)NC1=C([N+](=O)[O-])C=NN(c2ccccc2)C1`, for which the TGI in the test with MOLT-4 leukemia is 5.05 µM; in the test with HCT-116 colon, 3.26 µM; in the test with SNB-78 CNS, 4.3 µM; with HCT-15 colon, 3.09 µM; with DMS 114 small cell lung, 3.33 µM; in the test with OVCAR-3 ovarian it was 3.29 µM. For the same compound, the TGI with KM20L2 colon turned out to be 3.54 µM; in the test on OVCAR-4 ovarian, 3.22 µM; with HL-60(TB) leukemia it was 4.62 µM.

For `N#C/C(=C\c1c(O)cc(O)cc1O)C(N)=O`, the TGI in the test with MOLT-4 leukemia, in the test with HCT-116 colon, in the test with SNB-78 CNS, in the test on HCT-15 colon, in the test with DMS 114 small cell lung and with OVCAR-3 ovarian was above 100 µM throughout. For the same compound, the TGI with KM20L2 colon, with OVCAR-4 ovarian and with HL-60(TB) leukemia was above 100 µM each time.

Consider `CCC12C=CCN(CCc3c([nH]c4ccccc34)/C=C\1)C2` (stereo not given), for which the TGI with MOLT-4 leukemia, in the test with HCT-116 colon, in the test on HCT-15 colon, in the test on DMS 114 small cell lung, in the test on OVCAR-3 ovarian and with KM20L2 colon was above 100 µM each time. In addition, the TGI in the test on OVCAR-4 ovarian and in the test with HL-60(TB) leukemia was above 100 µM throughout.

As for `O=C(O)c1ccc2c(c1)C(=O)N(c1ccc(S(=O)(=O)c3ccc(N4C(=O)c5ccc(C(=O)O)cc5C4=O)cc3)cc1)C2=O`, the TGI in the test with MOLT-4 leukemia, in the test on HCT-116 colon, in the test on SNB-78 CNS, with HCT-15 colon, in the test on DMS 114 small cell lung and in the test with OVCAR-3 ovarian was above 100 µM throughout. In addition, the TGI in the test on KM20L2 colon, with OVCAR-4 ovarian and with HL-60(TB) leukemia was above 100 µM each time.

For the compound `COC(=O)c1c(O)ccc(O)c1C(C(C)=O)C(C)=O`, the TGI with MOLT-4 leukemia, with HCT-116 colon, in the test on SNB-78 CNS, in the test with HCT-15 colon, in the test with DMS 114 small cell lung and with OVCAR-3 ovarian was above 100 µM throughout. Moreover, the TGI in the test on OVCAR-4 ovarian and in the test on HL-60(TB) leukemia was above 100 µM in each case.

Turning to `Cc1ccc2c(c1)-c1c3c(nn1C)-c1ccccc1SC3O2` (stereo not given), the TGI in the test on MOLT-4 leukemia, in the test on HCT-116 colon, in the test with SNB-78 CNS, with DMS 114 small cell lung, in the test with OVCAR-3 ovarian and in the test on KM20L2 colon was above 100 µM in each case. This compound also yielded a TGI in the test on HL-60(TB) leukemia above 100 µM.

For `C/C=C(\N=C=S)C(=O)OC1C(COC(C)=O)OC([C@]2(O)CC(=O)C(=N)C(C(=O)O)=C2O)C(O)C1OC1CC(OC)C(O)([C@@H](C)OC(=O)[C@@H](C)CC)C(C)O1` (stereo not given in full), the TGI with MOLT-4 leukemia came out at 14 µM; with HCT-116 colon it was 21.9 µM; in the test on SNB-78 CNS it was 26.4 µM; in the test with HCT-15 colon, 37.1 µM; in the test with DMS 114 small cell lung, 14.9 µM; in the test with OVCAR-3 ovarian, 35.7 µM. Further, the TGI in the test with KM20L2 colon is 18.5 µM; with OVCAR-4 ovarian, 19.4 µM; in the test with HS 578T breast, above 96.1 µM; with DU-145 prostate, 39.2 µM; with HL-60(TB) leukemia it was 5.34 µM.

Consider `O=C(/C=C/c1ccc(Cl)c(Cl)c1)c1ccccc1Cl`, for which the TGI with MOLT-4 leukemia stood at 98.4 µM; with HCT-116 colon, 9.95 µM; in the test on SNB-78 CNS, 32.3 µM; in the test on HCT-15 colon, 9.97 µM; with DMS 114 small cell lung it was 11.2 µM; in the test with OVCAR-3 ovarian, 23 µM. Further, the TGI with KM20L2 colon stood at 23.7 µM; in the test on OVCAR-4 ovarian, 27.9 µM; in the test on HL-60(TB) leukemia, 16.7 µM.

Take `Cc1ccccc1NC(=O)/C(=N\NC(N)=S)C(C#N)c1ccccc1` (stereo not given): the TGI in the test with MOLT-4 leukemia, with HCT-116 colon, in the test with SNB-78 CNS, in the test on HCT-15 colon, in the test with DMS 114 small cell lung and with OVCAR-3 ovarian was above 100 µM throughout. In addition, the TGI in the test on KM20L2 colon, in the test on OVCAR-4 ovarian and in the test on HL-60(TB) leukemia was above 100 µM each time.

For the compound `Cc1cccc(C)c1NC(=O)CCC(=O)NC(N)=NC#N`, the TGI in the test with MOLT-4 leukemia, in the test with HCT-116 colon, in the test with HCT-15 colon, in the test with DMS 114 small cell lung, in the test on OVCAR-3 ovarian and in the test on KM20L2 colon was above 100 µM in each case. The TGI in the test on OVCAR-4 ovarian and in the test with HL-60(TB) leukemia was above 100 µM each time.

As for `CCOC(=O)C1=C(C)NC(=O)NC1c1ccc(OC)cc1OC` (stereo not given), the TGI in the test on MOLT-4 leukemia, with HCT-116 colon, in the test on SNB-78 CNS, in the test with HCT-15 colon, in the test with DMS 114 small cell lung and with OVCAR-3 ovarian was above 100 µM throughout. Further, the TGI in the test with KM20L2 colon and with HL-60(TB) leukemia was above 100 µM each time.

Take `Nc1cccc2c1-c1c(cccc1[N+](=O)[O-])C2=O`: the TGI with MOLT-4 leukemia, in the test on HCT-116 colon, in the test on SNB-78 CNS, with HCT-15 colon, with DMS 114 small cell lung and in the test on OVCAR-3 ovarian was above 100 µM throughout. In addition, the TGI in the test with KM20L2 colon, with OVCAR-4 ovarian and in the test with HL-60(TB) leukemia was above 100 µM each time.

In the case of `CC(=O)OCC1OC(n2cccnc2=O)C(OC(C)=O)C1OC(C)=O` (stereo not given), the TGI in the test on MOLT-4 leukemia, in the test on HCT-116 colon, in the test on SNB-78 CNS, with HCT-15 colon, with DMS 114 small cell lung and with OVCAR-3 ovarian was above 100 µM each time. Also, the TGI in the test with KM20L2 colon, with OVCAR-4 ovarian and in the test on HL-60(TB) leukemia was above 100 µM each time.

For the compound `CC1(C)C(=O)OC(n2cc(F)c(=O)[nH]c2=O)C1=O` (stereo not given), the TGI with MOLT-4 leukemia, with HCT-116 colon, with SNB-78 CNS, in the test on HCT-15 colon, in the test on DMS 114 small cell lung and with OVCAR-3 ovarian was above 100 µM throughout. The TGI with KM20L2 colon, with OVCAR-4 ovarian and in the test on HL-60(TB) leukemia was above 100 µM in each case.

With `N#Cc1c2ccccc2c(Cc2ccc3c(c2)OCCOCCOCCOCCOCCO3)c2ccccc12`, the TGI with MOLT-4 leukemia was above 100 µM; in the test on HCT-116 colon, 21.3 µM; in the test with SNB-78 CNS, 31.9 µM; in the test on HCT-15 colon it was 19.2 µM; in the test on DMS 114 small cell lung, 23.9 µM; with OVCAR-3 ovarian, 16.4 µM. Besides, the TGI came out at 21.7 µM with KM20L2 colon and 17.4 µM with OVCAR-4 ovarian.

Regarding `CC1(C)c2ccccc2N2C(c3ccccc3)=NOC21C` (stereo not given), the TGI in the test on MOLT-4 leukemia, in the test on HCT-116 colon, in the test on SNB-78 CNS, in the test with HCT-15 colon, in the test on DMS 114 small cell lung and in the test on OVCAR-3 ovarian was above 100 µM in each case. The TGI in the test with KM20L2 colon, in the test on OVCAR-4 ovarian and in the test on HL-60(TB) leukemia was above 100 µM throughout.

With `C[P+]1(Cc2ccccc2)CCCC1`, the TGI with MOLT-4 leukemia, with HCT-116 colon, in the test with SNB-78 CNS, in the test on HCT-15 colon, with DMS 114 small cell lung and in the test with OVCAR-3 ovarian was above 100 µM in each case. Besides, the TGI in the test with KM20L2 colon and with HL-60(TB) leukemia was above 100 µM throughout.

Take `O=C(NC1CC1)c1c(O)[nH]c(=S)[nH]c1=O`: the TGI in the test with MOLT-4 leukemia, in the test with HCT-116 colon, in the test with SNB-78 CNS, with HCT-15 colon, in the test with DMS 114 small cell lung and with OVCAR-3 ovarian was above 100 µM throughout. The TGI with KM20L2 colon, in the test on OVCAR-4 ovarian and with HL-60(TB) leukemia was above 100 µM each time.

`Cc1cccc(NC(=O)C(=O)C(C2OC(=O)c3ccccc32)[N+](=O)[O-])c1C` (stereo not given): the TGI with MOLT-4 leukemia is above 100 µM; in the test on HCT-116 colon, 21.3 µM; in the test with SNB-78 CNS it was above 100 µM; in the test with HCT-15 colon it was 19.7 µM; with DMS 114 small cell lung, 10.3 µM; in the test on OVCAR-3 ovarian, 5.11 µM. The TGI in the test on KM20L2 colon worked out at 42.7 µM; in the test with OVCAR-4 ovarian it was 25.8 µM; in the test with HL-60(TB) leukemia it was 6.94 µM.

Regarding `C/C=C/C(=O)Oc1cccc2cccnc12`, the TGI was above 100 µM in the test on MOLT-4 leukemia; 18.1 µM in the test with HCT-116 colon; above 100 µM in the test with SNB-78 CNS; 33.4 µM in the test on HCT-15 colon; 16.8 µM in the test on DMS 114 small cell lung; above 73.6 µM with OVCAR-3 ovarian. Moreover, the TGI is above 35.5 µM in the test on KM20L2 colon, 22 µM in the test on OVCAR-4 ovarian and above 33.8 µM with HL-60(TB) leukemia.

Turning to `CC(=O)OC1CCC2OOC1O2` (stereo not given), the TGI with MOLT-4 leukemia, in the test on HCT-116 colon, in the test on SNB-78 CNS, in the test on HCT-15 colon, in the test with DMS 114 small cell lung and in the test with OVCAR-3 ovarian was above 100 µM throughout. The TGI with KM20L2 colon, in the test with OVCAR-4 ovarian and with HL-60(TB) leukemia was above 100 µM each time.

Turning to `Brc1ccccc2cc(-c3ccccc3)nc1-2`, the TGI is above 92.3 µM in the test on MOLT-4 leukemia; 10.5 µM in the test with HCT-116 colon; 6.91 µM with SNB-78 CNS; 17.1 µM in the test with HCT-15 colon; 6.12 µM with DMS 114 small cell lung; 12.3 µM with OVCAR-3 ovarian. In addition, the TGI was 19.8 µM in the test with OVCAR-4 ovarian, above 100 µM in the test with HS 578T breast, above 63.3 µM with DU-145 prostate and 35.8 µM in the test with HL-60(TB) leukemia.

With `Cn1[nH]cc2ccc3nc4ccccc4c(=O)c3c21`, the TGI in the test with MOLT-4 leukemia is above 95.1 µM; with HCT-116 colon, above 100 µM; in the test with SNB-78 CNS it was above 83.9 µM; with HCT-15 colon, 97.4 µM; in the test with DMS 114 small cell lung it was above 100 µM; in the test on OVCAR-3 ovarian, above 100 µM. Also, the TGI is above 100 µM in the test on KM20L2 colon, 75.8 µM in the test with OVCAR-4 ovarian and 90.8 µM in the test with HL-60(TB) leukemia.

In the case of `O=C1c2ccccc2C(=O)N1CCCOCc1c[nH]c(=O)[nH]c1=O`, the TGI with MOLT-4 leukemia, in the test with HCT-116 colon, in the test on HCT-15 colon, in the test with DMS 114 small cell lung, in the test with OVCAR-3 ovarian and in the test with KM20L2 colon was above 100 µM in each case. Further, the TGI in the test with OVCAR-4 ovarian and in the test with HL-60(TB) leukemia was above 100 µM throughout.
